This assay relates to TNF α production from mouse macrophages. The experiment in a line: Inhibitory activity of compound on TNF α Production from mouse macrophages (LPS-induced PEC's). In kind it is cell-based. Conditions: Macrophage, LPS 10 μg/ml, 18 hours. The protocol:
BALB/c mice (female, 5-7 weeks old, Charles River Japan, Tokyo, Japan) were injected i.p. with 1 ml of 2.4% thioglycollate broth. After 4 days, the mice were sacrificed. Peritoneal exudated cells (PEC's) were collected from the peritoneal cavity by washing with minimum essential medium (MEM, Handai biseibutubyou kenkyukai, Osaka, Japan) containing 5 U/ml heparin, 1% fetal bovine serum (FBS, Filtron, Victoria, Australia) and antibiotics. The cells were washed two times with MEM, suspended with MEM containing 10% FBS (complete MEM, cMEM) and seeded into 96-well culture plates (Costar, Cambridge, Mass., USA) at 2×10^5 cells/well. The cells were incubated for 1 hour at 37° C. in a humidified 5% CO2 incubator and washed two times to remove non-adherent cells.
TNF α was induced by 10 μg/ml of LPS (E. coli O111B4, DIFCO, Detroit, Mich., USA) the cells were cultured for 18 hours at 37° C. A compound of the present invention was dissolved in DMSO and added to the culture simultaneously with LPS. The final DMSO concentration was below 0.1%. The TNF α concentration in supernatant and recombinant mouse TNF α standard (rm-TNF α, Genzyme, Mass., USA) were incubated overnight at 4° C. in a 96-well plate coated with anti-mouse TNF α monoclonal antibody (PharMingen, San Diego, Calif., USA) that previously had been blocked with 10% FBS. Each well of the plate first was incubated at room temperature with biotinylated anti-mouse TNF α polyclonal antibodies (PharMingen) for 45 minutes, then with peroxidase-conjugated streptavidin (Kirkegaard & Perry Laboratories Inc., Gaitherburg, Md., USA) for 30 minutes. After each incubation, the plate was washed 4 to 8 times with PBS containing 0.2% Tween 20. TMB (Kirkegaard & Perry Laboratories Inc.) was the peroxidase substrate used and, the absorbance of each well was quantified at 450 nm by a microplatereader (Molecular Devices Corp., CA, USA). TNF α levels in the supernatant were quantified with rm-TNF α as the standard.
Regarding `COc1ccc(Cc2cc(C3CCN(C(=O)CCN)CC3)nc(N)n2)cc1` [Example 287, 2-amino-4-[1-(3-aminopropanoyl)-4-piperidinyl]-6-(4-methoxyphenylmethyl)pyrimidine], the inhibition (commonly the drop in the measured response relative to a control, in per cent) at 30 µM is 40%.
In the case of `CCCCCC(=O)N1CCC(c2cc(Cc3ccc(OC)cc3)nc(N)n2)CC1` [Example 166] it was 48%; in that of `COc1ccc(Cc2cc(C3CCN(C(=O)OCc4ccccc4)CC3)nc(N)n2)cc1` [Example 274], 49%.
As to `COc1ccc(Cc2cc(C3CCN(C(=O)c4cccc(OC)c4)CC3)nc(N)n2)cc1` [Example 179], the inhibition at 30 µM was 82%.
In the case of `Nc1nc(C2CCN(C(=O)c3c(Cl)ccc(Cl)c3Cl)CC2)c2ccccc2n1` [Example 74] it was 88%; in that of `CCCC(=O)N1CCC(c2nc(N)nc3ccccc23)CC1` [Example 17], 8%.
In the case of `Nc1nc(C2CCN(C(=O)OCc3ccccc3)CC2)c2ccccc2n1` [Example 269] it was 77%; in that of `COc1ccc(Cc2cc(C3CCN(C(=O)c4ccc(Cl)cc4)CC3)nc(N)n2)cc1` [Example 183], 54%.
Next, `Nc1nc(-c2ccccc2)cc(C2CCN(C(=O)Cc3ccc([N+](=O)[O-])cc3)CC2)n1` [Example 144]: 6%; `CC(C)(C)OC(=O)NCCCCCCC(=O)N1CCC(c2nc(N)nc3ccccc23)CC1` [Example 27, 2-amino-4-[1-(7-t-butoxycarbonylaminoheptanoyl)-4-piperidinyl]quinazoline]: 95%.
In the case of `COc1ccc(CC(=O)N2CCC(c3cc(Cc4ccc(OC)cc4)nc(N)n3)CC2)cc1` [Example 224], the inhibition at 30 µM amounted to 73%.
In the case of `Nc1nc(-c2ccc(Cl)cc2)cc(C2CCN(C(=O)Cc3ccc(Cl)cc3)CC2)n1` [Example 152] it was 90%.
On to `Nc1nc(C2CCN(C(=O)c3c(Cl)cc(Cl)cc3Cl)CC2)c2ccccc2n1` [Example 75], for which the inhibition at 30 µM came to 92%.
For `Nc1nc(CCc2ccccc2)cc(C2CCN(C(=O)Cc3ccc(Cl)cc3)CC2)n1` [Example 262], the inhibition at 30 µM was 43%.
On to `COc1ccc(CC(=O)N2CCC(c3nc(N)nc4ccccc34)CC2)cc1` [Example 79], for which the inhibition at 30 µM is -3%.
Next, `Nc1nc(C2CCN(C(=O)c3ccccc3[N+](=O)[O-])CC2)c2ccccc2n1` [Example 38]: 30%.
In the case of `COc1ccc(Cc2cc(C3CCN(C(=O)c4ccncc4)CC3)nc(N)n2)cc1` [Example 196] it was 57%.
Next, `COc1ccc(CC(=O)N2CCC(c3nc(N)nc4ccc(Cl)cc34)CC2)cc1` [Example 131]: 23%; `Nc1nc(Cc2ccc(Cl)cc2)cc(C2CCN(C(=O)c3ccccc3)CC2)n1` [Example 7, 2-Amino-4-(1-benzoyl-4-piperidinyl)-6-(4-chlorophenylmethyl)pyrimidine]: 58%; `CCCCCCCC(=O)N1CCC(c2cc(-c3ccc(Cl)cc3)nc(N)n2)CC1` [Example 147]: 55%.
As for `COc1ccc(Cc2cc(C3CCN(C(=O)c4ccc(OC)c(OC)c4OC)CC3)nc(N)n2)cc1` [Example 213], the inhibition at 30 µM stood at 43%.
In the case of `COc1ccc(Cc2cc(C3CCN(C(=O)c4ccccc4[N+](=O)[O-])CC3)nc(N)n2)cc1` [Example 184] it was 73%; in that of `COc1ccc(C(=O)N2CCC(c3nc(N)nc4ccccc34)CC2)c(OC)c1` [Example 53], 54%.
Next, `COc1ccc(Cc2cc(C3CCN(C(=O)c4ccc(OC)c(OC)c4)CC3)nc(N)n2)cc1` [Example 201]: 46%; `COc1ccc(Cc2cc(C3CCN(C(=O)Cc4ccc5c(c4)OCO5)CC3)nc(N)n2)cc1` [Example 243]: 93%; `CCCCCCCCCC(=O)N1CCC(c2cc(-c3ccc(OC)cc3)nc(N)n2)CC1` [Example 156]: 74%.
On to `COc1ccc(Cc2cc(C3CCN(C(=O)Cc4ccc([N+](=O)[O-])cc4[N+](=O)[O-])CC3)nc(N)n2)cc1` [Example 242], for which the inhibition at 30 µM came out at 31%.
In the case of `Nc1nc(C2CCN(C(=O)c3ccc(Cl)cc3)CC2)c2ccccc2n1` [Example 37] it was 4%.
In the case of `CCCCCCC(=O)N1CCC(c2cc(Cc3ccc(OC)cc3)nc(N)n2)CC1` [Example 167] it was 52%.
In the case of `Nc1nc(C2CCN(C(=O)Cc3cccc(Cl)c3)CC2)c2ccccc2n1` [Example 81] it was 56%.
Regarding `COc1ccc2nc(N)nc(C3CCN(C(=O)c4ccc(Cl)cc4)CC3)c2c1` [Example 113], the inhibition at 30 µM is -1%.
Next, `COc1ccc(CC(=O)N2CCC(c3cc(CCc4ccccc4)nc(N)n3)CC2)cc1` [Example 261]: 42%; `Nc1nc(C2CCN(C(=O)Cc3ccc([N+](=O)[O-])cc3)CC2)c2cc(Cl)ccc2n1` [Example 133]: 35%.
As to `COc1ccc(Cc2cc(C3CCN(C(=O)c4ccc(Cl)cc4Cl)CC3)nc(N)n2)cc1` [Example 204], the inhibition at 30 µM amounted to 84%.
On to `COc1ccc(Cc2cc(C3CCN(C(=O)Cc4cccc(OC)c4)CC3)nc(N)n2)cc1` [Example 223], for which the inhibition at 30 µM was found to be 82%.
In the case of `Nc1nc(C2CCN(C(=O)Cc3c(Cl)ccc(Cl)c3Cl)CC2)c2ccccc2n1` [Example 98] it was 43%; in that of `CCCCCCCCCC(=O)N1CCC(c2cc(Cc3ccc(OC)cc3)nc(N)n2)CC1` [Example 170], 11%; in that of `CCCCCCCCC(=O)N1CCC(c2nc(N)nc3ccc(Cl)cc23)CC1` [Example 128], 79%.
In the case of `Nc1nc(C2CCN(C(=O)c3ccccc3Cl)CC2)c2ccccc2n1` [Example 35] it was 72%; in that of `Nc1nc(C2CCN(C(=O)c3cccc(Cl)c3)CC2)c2ccccc2n1` [Example 36], 42%; in that of `CCCCCCCCC(=O)N1CCC(c2cc(CCc3ccccc3)nc(N)n2)CC1` [Example 256], 75%.
With `COc1ccc(C(=O)N2CCC(c3nc(N)nc4ccccc34)CC2)c(OC)c1OC` [Example 68], the inhibition at 30 µM came to 8%.
`Nc1nc(C2CCN(S(=O)(=O)Cc3ccccc3)CC2)c2ccccc2n1` [Example 272]: the inhibition at 30 µM was 5%.
Turning to `CCCCCCCC(=O)N1CCC(c2nc(N)nc3ccccc23)CC1` [Example 21], the inhibition at 30 µM is 74%.
Turning to `NCCCCCCCCCCC(=O)N1CCC(c2nc(N)nc3ccccc23)CC1` [Example 286, 2-amino-4-[1-(11-aminoundecanoyl)-4-piperidinyl]quinazoline], the inhibition at 30 µM came out at 67%.
In the case of `COc1ccc(CC(=O)N2CCC(c3nc(N)nc4ccc(OC)cc34)CC2)cc1` [Example 120] it was 31%; in that of `NCCCCCCC(=O)N1CCC(c2nc(N)nc3ccccc23)CC1` [Example 284, 2-amino-4-[1-(7-aminoheptanoyl)-4-piperidinyl]quinazoline], 3%.
Next, `COc1cccc(C(=O)N2CCC(c3nc(N)nc4ccccc34)CC2)c1OC` [Example 52]: 20%; `COc1ccc(Cc2cc(C3CCN(C(=O)c4cc(OC)c(OC)c(OC)c4)CC3)nc(N)n2)cc1` [Example 217]: 44%.

(Values after patent US5948786A, “Piperidinylpyrimidine derivatives” (Sumitomo Pharmaceuticals Company, Limited, priority 1996, dated 1999).)
